A short description of series [1]: Inhibition of AKT phosphorylation at S473 in human BT20 cells after 1 hr by sandwich ELISA. In kind it is cell-based. Conditions: BT-20, 1 h. (In general: In an ELISA, binding on a coated surface is turned into a signal by an enzyme label.)
Series [2] in a line: Kinetic solubility of the compound. In kind it is physicochemical. The note with it: read-out: Kinetic_solubility.
Series [3] in a line: Metabolic stability in human liver microsomes assessed as extraction ratio. Type of series: ADME. Conditions: read-out: ERH. On the technique in general: Liver microsomes are vesicles of endoplasmic reticulum, rich in cytochrome P450 enzymes.
In series [4] the target is Phosphatidylinositol 4,5-bisphosphate 3-kinase catalytic subunit alpha isoform (Mus musculus, UniProt P42337). Description: Inhibition of mouse PI3K alpha expressed in insect cells coexpressing p85 subunit assessed as PI(3,4,5)P3 formation using PI(4,5)P2 as substrate by measuring displacement of TAMRA-labeled PI(3,4,5)P3 from Grip1 PH domain after 35 mins by ligand displacement fluorescence polarization assay.
Phosphatidylinositol 4,5-bisphosphate 3-kinase catalytic subunit alpha isoform, sequence (P42337 whole entry, the tested form may be a part, canonical isoform): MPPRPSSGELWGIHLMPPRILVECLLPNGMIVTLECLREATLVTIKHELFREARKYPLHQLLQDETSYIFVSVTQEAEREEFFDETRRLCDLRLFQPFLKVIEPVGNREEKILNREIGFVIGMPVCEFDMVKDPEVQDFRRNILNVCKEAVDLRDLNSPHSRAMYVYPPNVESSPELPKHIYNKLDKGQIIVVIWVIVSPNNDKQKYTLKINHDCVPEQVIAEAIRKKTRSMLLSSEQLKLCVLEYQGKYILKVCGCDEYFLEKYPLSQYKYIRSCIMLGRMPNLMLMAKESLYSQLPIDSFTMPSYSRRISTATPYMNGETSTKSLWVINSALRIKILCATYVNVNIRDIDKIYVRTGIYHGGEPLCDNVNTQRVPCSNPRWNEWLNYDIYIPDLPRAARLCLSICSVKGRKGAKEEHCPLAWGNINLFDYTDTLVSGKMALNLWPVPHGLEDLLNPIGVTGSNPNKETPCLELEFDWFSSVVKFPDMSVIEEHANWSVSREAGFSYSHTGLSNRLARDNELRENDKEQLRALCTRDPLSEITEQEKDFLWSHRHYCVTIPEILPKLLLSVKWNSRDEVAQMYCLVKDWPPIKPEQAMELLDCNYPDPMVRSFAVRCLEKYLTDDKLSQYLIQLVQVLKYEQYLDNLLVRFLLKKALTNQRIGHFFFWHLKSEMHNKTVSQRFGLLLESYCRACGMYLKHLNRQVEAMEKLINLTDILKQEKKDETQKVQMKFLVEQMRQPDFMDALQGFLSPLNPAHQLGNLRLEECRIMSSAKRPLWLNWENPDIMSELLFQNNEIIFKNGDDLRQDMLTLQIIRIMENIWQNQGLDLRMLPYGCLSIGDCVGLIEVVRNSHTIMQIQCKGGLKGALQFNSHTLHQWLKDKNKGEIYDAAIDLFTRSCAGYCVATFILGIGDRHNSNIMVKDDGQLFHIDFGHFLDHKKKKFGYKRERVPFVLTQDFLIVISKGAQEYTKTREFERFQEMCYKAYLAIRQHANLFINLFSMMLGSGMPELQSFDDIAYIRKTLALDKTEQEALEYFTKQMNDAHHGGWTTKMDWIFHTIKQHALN

Series [5] concerns the target Serine/threonine-protein kinase mTOR (Homo sapiens, UniProt P42345).
Series [6] can be described thus: Drug absorption in rat. Type of series: ADME, organism-based. The note with it: in vivo, read-out: Drug absorption.
Series [7] relates to Rattus norvegicus. Description: Drug metabolism in iv dosed rat plasma assessed as 2-amino-8-((cis)-4-hydroxycyclohexyl)-6-(6-methoxypyridin-3-yl)-4-methylpyrido[2,3-d]pyrimidin-7(8H)-one level. Type of series: ADME, organism-based. Conditions: in vivo.
The test system of series [8] is Mus musculus. Description: Drug metabolism in po dosed mouse plasma assessed as 2-amino-8-((cis)-4-hydroxycyclohexyl)-6-(6-methoxypyridin-3-yl)-4-methylpyrido[2,3-d]pyrimidin-7(8H)-one level. Type of series: ADME, organism-based. The note with it: in vivo.
For series [9], the system named is Rattus norvegicus. Description: Drug metabolism in iv dosed rat plasma assessed as 2-amino-8-((trans)-4-hydroxycyclohexyl)-6-(6-methoxypyridin-3-yl)-4-methylpyrido[2,3-d]pyrimidin-7(8H)-one level. In kind it is ADME, organism-based. Conditions: in vivo.
Series [10] relates to Mus musculus. Description: Drug metabolism in po dosed mouse plasma assessed as 2-amino-8-((trans)-4-hydroxycyclohexyl)-6-(6-methoxypyridin-3-yl)-4-methylpyrido[2,3-d]pyrimidin-7(8H)-one level. Type of series: ADME, organism-based. Conditions: in vivo.
In series [11] the test system is Rattus norvegicus. Description: Unbound clearance in rat at 2 mg/kg, iv and 5 mg/kg, po by LC-MS/MS analysis. In kind it is ADME, organism-based. The note with it: in vivo.
Series [12] can be described thus: Half life in rat at 2 mg/kg, iv and 5 mg/kg, po by LC-MS/MS analysis. In kind it is ADME, organism-based. Conditions: in vivo.
Series [13] can be described thus: Volume of distribution at steady state in rat at 2 mg/kg, iv and 5 mg/kg, po by LC-MS/MS analysis. Type of series: ADME, organism-based. The note with it: in vivo, read-out: Vdss.
Series [14] is described as follows: Inhibition of AKT phosphorylation at S473 in human SKOV3 cells after 1 hr by sandwich ELISA. In kind it is cell-based. The note with it: SK-OV-3, 1 h.
Series [15] is described as follows: Unbound fraction in rat plasma at 2 mg/kg, iv and 5 mg/kg, po by LC-MS/MS analysis. In kind it is ADME, organism-based.
A short description of series [16]: Clearance in rat at 2 mg/kg, iv and 5 mg/kg, po by LC-MS/MS analysis. In kind it is ADME, organism-based. The note with it: in vivo.

Molecules are shown by their SMILES. Converted amounts (≈) assume the structure as drawn.

As to `CNc1nc(C)c2cc(-c3cccc(CO)c3)c(=O)n(C3CCCC3)c2n1`, half-maximal inhibition in series [1] (IC50) was put at 15 nM. Also, the solubility kinetic in series [2] was found to be 65 µM (≈ 23.7 µg/mL). Moreover, the hepatic extraction ratio in [3] was 0.68. Moreover, the Ki (commonly the dissociation constant of the complex between target and ligand, obtained from inhibition or displacement) in [4] worked out at 1.4 nM; in series [5], 840 nM.
For `COc1ccc(-c2cc3c(C)nc(N)nc3n(C3CCCC3)c2=O)cn1`, the midpoint of inhibition in series [1], the IC50, lay at 16 nM. The solubility kinetic in series [2] was 3.9 µM (≈ 1.37 µg/mL). In [3], the hepatic extraction ratio was below 0.25. The figures for the Ki in [4] and in [5] were 1.4 nM and 200 nM, respectively. Further, the Fa in series [6] is 28%.
In the case of `CNc1nc(C)c2cc(-c3ccc(OC)nc3)c(=O)n(C3CCCC3)c2n1`, the Ki in [4] is 1.1 nM; in series [5], 700 nM.
Take `COc1ccc(-c2cc3c(C)nc(N)nc3n([C@H]3CC[C@H](O)CC3)c2=O)cn1`: the half-inhibitory concentration (IC50) (usually the point on the concentration scale where inhibition reaches its midpoint) in series [1] was found to be 12 nM. The solubility kinetic in series [2] was determined as 16 µM (≈ 6.1 µg/mL). Further, the Stability result in the series on Rattus norvegicus [7] and in the series with Mus musculus [8] was “Unstable” throughout. Also, the hepatic extraction ratio in [3] is below 0.25. Also, the Ki in series [4] was determined as 0.9 nM; in series [5] it was 17 nM.
On to `COc1ccc(-c2cc3c(C)nc(N)nc3n([C@H]3CC[C@@H](O)CC3)c2=O)cn1`, for which the Stability entry in the series with Rattus norvegicus [9] and in the series on Mus musculus [10] was “Unstable” throughout. In addition, in series [1], half-maximal inhibition (IC50) was put at 22 nM. In [2], the solubility kinetic is 60 µM (≈ 22.9 µg/mL). Besides, the hepatic extraction ratio in [3] is below 0.26. Also, the Ki came to 3 nM in series [4] and 90 nM in series [5].
Take `COc1ccc(-c2cc3c(C)nc(N)nc3n(C3CCOCC3)c2=O)cn1`: the solubility kinetic in series [2] worked out at 40 µM (≈ 14.7 µg/mL). Moreover, the hepatic extraction ratio in [3] was below 0.26. The Ki amounted to 3.6 nM in [4] and 110 nM in [5].
The corresponding values for `COc1ccc(-c2cc3c(C)nc(N)nc3n(C3CCOC3)c2=O)cn1` (stereo not given) are 144 µM (≈ 50.9 µg/mL), below 0.26, 6.6 nM and 150 nM.
`Cc1nc(N)nc2c1cc(-c1cccc(CO)c1)c(=O)n2C1CCCC1`: the Ki came to 1.2 nM in series [4] and 82 nM in series [5].
Regarding `COc1ccc(-c2cc3c(C)nc(N)nc3n([C@H]3CC[C@H](OCCO)CC3)c2=O)cn1` [PF-04691502], in the series with Rattus norvegicus [11], the CL free amounted to 25.9 mL/min/kg. In addition, the IC50 in series [1] came to 13 nM; in series [14], 7.4 nM. For the same compound, in series [12], the half-life – broadly, the time needed for the level to fall by half in the phase considered – was 3.1 h. Further, in [13], the Vd was 1.39 L/kg. In addition, in series [2], the solubility kinetic was determined as 14 µM (≈ 5.96 µg/mL). For the same compound, the fraction unbound (commonly the share of the substance not bound to proteins or other matrix) in series [15] was 0.202. Further, the clearance in series [16] was 5.2 mL/min/kg.
